# Test results from article PMC11788587, “Validating Low‐Dose Iohexol as a Marker for Glomerular Filtration Rate by In Vitro and In Vivo Studies” (Clinical and Translational Science, 2025).
# Biological target: T1, hOAT1 (Homo sapiens, UniProt Q4U2R8)
# T1 construct: expressed in transfected cells; host or cells: HEK-293 (293) cells, pEBTetD plasmid, doxycycline-induced
# T1 sequence (Q4U2R8 1-563): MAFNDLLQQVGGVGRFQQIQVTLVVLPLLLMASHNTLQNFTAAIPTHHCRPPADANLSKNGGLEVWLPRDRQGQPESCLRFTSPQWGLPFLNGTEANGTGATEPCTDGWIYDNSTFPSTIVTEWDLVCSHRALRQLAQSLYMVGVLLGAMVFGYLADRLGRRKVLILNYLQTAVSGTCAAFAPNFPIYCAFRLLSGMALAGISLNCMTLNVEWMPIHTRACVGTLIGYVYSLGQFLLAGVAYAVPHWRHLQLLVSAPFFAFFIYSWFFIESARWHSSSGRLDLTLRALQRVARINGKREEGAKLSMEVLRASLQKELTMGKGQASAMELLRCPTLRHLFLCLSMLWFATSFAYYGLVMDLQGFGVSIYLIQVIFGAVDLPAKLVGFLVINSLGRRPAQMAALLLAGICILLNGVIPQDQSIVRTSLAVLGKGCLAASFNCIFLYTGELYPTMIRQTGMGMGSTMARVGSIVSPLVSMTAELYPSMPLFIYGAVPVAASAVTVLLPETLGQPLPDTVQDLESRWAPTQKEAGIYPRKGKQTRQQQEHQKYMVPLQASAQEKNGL
# Experiment: Inhibition of hOAT1-mediated PAH uptake, stably transfected 293 cells
# Format: cell-based
# Details: substrate 10 µM PAH, median (95% CI)
# From the text: We characterized the inhibitory potential of iohexol on major drug transporters recommended by regulatory agencies, which were previously assessed in a clinical transporter phenotyping cocktail study. These transporters include hOAT1, hOAT3, hOCT1, hOCT2, hMATE1, hMATE2K, human organic anion transporter polypeptides (hOATP)1B1, hOATP1B3, and human multidrug resistance protein (hMDR)1. Additionally, we investigated whether iohexol is a substrate for any of the renal transporters among these, including hOAT1/3, hOCT1/2, and hMATE1/2K. Cell‐based uptake assays were used to assess the activities of hOAT1/3, hOCT1/2, hMATE1/2K, and hOATP1B1/1B3. Inside‐out membrane vesicle uptake assays were used to evaluate the activity of hMDR1.
# To determine the maximal inhibitory potential of iohexol, intracellular accumulation of a standard substrate was measured with and without the clinically relevant highest concentrations of iohexol. Control inhibitors were tested in each experiment.
# In all subsequent in vitro studies, control experiments were conducted to validate the results. These included positive controls for substrates and inhibitors, as well as cells either without transporter expression or transfected with an empty vector, and control vesicles. Each condition, including cells or vesicles with the transporter and their respective controls, was analyzed in at least three replicates. For detailed information on materials, methods, and data analysis techniques used, refer to the Supporting Information. […]
# R version 4.2.1 (R Foundation for Statistical Computing, Vienna, Austria) was used for statistical evaluations and data visualization. The data analysis approach for the in vitro study was detailed by Hsin CH et al..^1 In brief, for transport assays, the initial uptake rate was calculated by normalizing the substrate concentration to both the protein concentration and the incubation time for each dish or well. The transporter-mediated uptake rate (net uptake) was determined by performing an element-wise subtraction of uptake rates from different conditions. […]
compound,measurement,setting,value
CC(=O)N(CC(O)CO)c1c(I)c(C(=O)NCC(O)CO)c(I)c(C(=O)NCC(O)CO)c1I (stereo not drawn) [iohexol],Inhibitory effect (% reduction of specific activity),20 mM iohexol,no notable inhibitory effects
same,inhibition at 1000 µM,"HEK293, 1 mM iohexol, read-out: Inhibitory effect (% reduction of specific activity)",-0.45%
same,inhibition at 20000 µM,"HEK293, 20 mM iohexol, read-out: Inhibitory effect (% reduction of specific activity)",3.1%
